Source: US20230022880A1, “Antimicrobial Composition” (INSTITUTE OF TECHNOLOGY SLIGO, priority 2019, published 2023)

System: several species of micro-organisms (Candida spp, Pseudomonas spp, E. coli)
Assay: Well diffusion bioassay, zones of inhibition
Type: cell-based
Details: NaCl tested on its own
Experimental: Escherichia coli (NCIMB 8545), Staphylococcus aureus (NCIMB 9518) and Pseudomonas aeruginosa (NCIMB 8626) are grown on nutrient agar or in nutrient broth for 24 hrs at 37° C.
Candida albicans (NCIMB 3179) and Saccharomyces cerevisiae are grown on sabaroud dextrose agar or in sabaroud dextrose broth for 24 hrs at 37° C. […]
Bacterial growth is monitored by measuring the culture optical density (OD) in a spectrophotometer (Anthos 2010) at a wavelength of 620 nm.
The formulations were assessed for antimicrobial activity against several species of micro-organisms (several of which produce catalase; Candida spp, Pseudomonas spp, E. coli) using the well diffusion bioassay, results were obtained by measuring the zones of inhibition (n=3).
Agar plates are inoculated by swabbing overnight culture onto the plate surface. Plates are allowed to stand at room temperature for 15 minutes before use. Wells 8.2 mm diameter are bored into the surface of the agar. A 180 μl sample is placed into each well. The samples diffuse into the agar around the well and are assayed for an ability to produce a zone of inhibition. Plates are incubated for 24, 48 or 72 hrs and zones of inhibition are measured using an Autodata automatic zone reader. The diameter of zones, including the diameter of the well (8.2 mm), is recorded. […]

Compound: [Cl-].[Na+] [NaCl, sodium chloride]
- Antimicrobial activity: no discernible activity
